Measurements reported in patent US5160483A, “Fragment of TNF-α for promoting wound healing” (The University of Tennessee Research Corporation, priority 1991, dated 1992).
Read-outs that look alike come from different tables or passages of the source.

What was measured:
[1] = test system: fibroblasts and monocytes; experiment: Intradermal injection in guinea pigs; assay type: in vivo
Description: The composition accomplishes this without the problems attendant on the previously developed materials. The fragment includes amino acids 31 through 68 SEQ ID No.: 1 of TNF-α which has the sequence: [drawing 1]

fibroblasts [2] = experiment: Chemotaxis of fibroblasts in chemotaxis chambers, fragment in lower compartment (FIG. 1); assay type: cell-based; settings: fragment in PBS in lower compartment of chemotaxis chambers
Method: (§1) Solutions of varying concentrations of the fragment of TNF-α comprising amino acids 31 through 68 SEQ ID No.: 1 in phosphate buffered saline (PBS) were added to the lower compartment of chemotaxis chambers. The number of fibroblasts migrating to the lower compartment was counted. The response curve is bell-shaped, with a maximum at 100 nM. An analysis of the effects of varying concentration gradients of the protein fragment (a Zigmond-Hirsch checkerboard analysis) was performed by adding different concentrations of the fragment to the upper and/or lower compartments of a chemotaxis chamber. The number of fibroblasts migrating to the lower surface of each filter was counted.

fibroblasts [3] = experiment: Zigmond-Hirsch checkerboard analysis of fibroblast migration in chemotaxis chamber; assay type: cell-based
Method: as §1
The fibroblasts migrate from the upper chamber to the lower chamber since there is very little of the fragment in the upper chamber and there is quite a large concentration of the fragment in the lower chamber. This simulates the condition at a wound site where there has been an application of the fragment to the wound. The concentration of the fragment in the surrounding tissue will be quite low compared to the concentration at the wound site. Therefore, the fibroblasts will migrate from the area of low concentration of the fragment to the area of high concentration.

[4] = known property of the complete protein; cited from earlier work

fragment of TNF-α comprising amino acids 31 through 68 SEQ ID No.: 1: 38-residue synthetic polypeptide, amino acids 31 through 68 of TNF-α (SEQ ID No.: 1), about 3,800 Da (RRANALLANGVELRDNQLVVPSEGLYLIYSQVLFKGQG; Tumor necrosis factor, soluble form; UniProt P01375 107-144, looked up, fragment)
cytotoxicity (Cytotoxicity): without any showing of cytotoxicity
amount of connective tissue at the injection site [1]: increase in the amount of connective tissue at the injection site
migration of fibroblasts and monocytes into the area of the wound [1]: increased migration of fibroblasts and monocytes into the area of the wound
concentration at the maximum of the bell-shaped fibroblast migration response curve (fibroblasts [2]): 100 nM
number of fibroblasts migrating to the lower surface of each filter (fibroblasts [3]; upper compartment 0 nM, lower compartment 21 nM): 31 ± 4
number of fibroblasts migrating to the lower surface of each filter (fibroblasts [3]; upper compartment 0 nM, lower compartment 41 nM): 57 ± 3
number of fibroblasts migrating to the lower surface of each filter (fibroblasts [3]; upper compartment 0 nM, lower compartment 164 nM): 73 ± 4
number of fibroblasts migrating to the lower surface of each filter (fibroblasts [3]; upper compartment 0 nM, lower compartment 329 nM): 86 ± 13
number of fibroblasts migrating to the lower surface of each filter (fibroblasts [3]; upper compartment 21 nM, lower compartment 0 nM): 20 ± 6
number of fibroblasts migrating to the lower surface of each filter (fibroblasts [3]; upper compartment 21 nM, lower compartment 21 nM): 9 ± 1
number of fibroblasts migrating to the lower surface of each filter (fibroblasts [3]; upper compartment 21 nM, lower compartment 41 nM): 49 ± 7
number of fibroblasts migrating to the lower surface of each filter (fibroblasts [3]; upper compartment 21 nM, lower compartment 164 nM): 46 ± 2
number of fibroblasts migrating to the lower surface of each filter (fibroblasts [3]; upper compartment 21 nM, lower compartment 329 nM): 67 ± 2
number of fibroblasts migrating to the lower surface of each filter (fibroblasts [3]; upper compartment 41 nM, lower compartment 0 nM): 31 ± 2
number of fibroblasts migrating to the lower surface of each filter (fibroblasts [3]; upper compartment 41 nM, lower compartment 21 nM): 28 ± 5
number of fibroblasts migrating to the lower surface of each filter (fibroblasts [3]; upper compartment 41 nM, lower compartment 41 nM): 26 ± 4
number of fibroblasts migrating to the lower surface of each filter (fibroblasts [3]; upper compartment 41 nM, lower compartment 164 nM): 47 ± 5
number of fibroblasts migrating to the lower surface of each filter (fibroblasts [3]; upper compartment 41 nM, lower compartment 329 nM): 57 ± 6
number of fibroblasts migrating to the lower surface of each filter (fibroblasts [3]; upper compartment 164 nM, lower compartment 0 nM): 14 ± 2
number of fibroblasts migrating to the lower surface of each filter (fibroblasts [3]; upper compartment 164 nM, lower compartment 21 nM): 11 ± 1
number of fibroblasts migrating to the lower surface of each filter (fibroblasts [3]; upper compartment 164 nM, lower compartment 41 nM): 16 ± 3
number of fibroblasts migrating to the lower surface of each filter (fibroblasts [3]; upper compartment 164 nM, lower compartment 164 nM): 22 ± 4
number of fibroblasts migrating to the lower surface of each filter (fibroblasts [3]; upper compartment 164 nM, lower compartment 329 nM): 43 ± 3
number of fibroblasts migrating to the lower surface of each filter (fibroblasts [3]; upper compartment 329 nM, lower compartment 0 nM): 16 ± 3
number of fibroblasts migrating to the lower surface of each filter (fibroblasts [3]; upper compartment 329 nM, lower compartment 21 nM): 10 ± 1
number of fibroblasts migrating to the lower surface of each filter (fibroblasts [3]; upper compartment 329 nM, lower compartment 41 nM): 9 ± 1
number of fibroblasts migrating to the lower surface of each filter (fibroblasts [3]; upper compartment 329 nM, lower compartment 164 nM): 12 ± 2
number of fibroblasts migrating to the lower surface of each filter (fibroblasts [3]; upper compartment 329 nM, lower compartment 329 nM): 8 ± 1
type of fibroblast migration induced (checkerboard analysis) (fibroblasts [3]; varying concentration gradients, Table I): induced mostly chemotactic migration of fibroblasts

TNF-α
cytotoxicity [4]: known to be a cytotoxin
